The values below come from ChEMBL document CHEMBL5247649, “Comparative Efficacy and Selectivity of Pharmacological Inhibitors of DYRK and CLK Protein Kinases” (J Med Chem, 2023).

For data set [1], the target named is T1, Glycogen synthase kinase-3 beta (Homo sapiens, UniProt P49841).
Data set [2] has as its target T2, Dual specificity tyrosine-phosphorylation-regulated kinase 2 (Homo sapiens, UniProt Q92630).
T2 sequence (Q92630 whole entry): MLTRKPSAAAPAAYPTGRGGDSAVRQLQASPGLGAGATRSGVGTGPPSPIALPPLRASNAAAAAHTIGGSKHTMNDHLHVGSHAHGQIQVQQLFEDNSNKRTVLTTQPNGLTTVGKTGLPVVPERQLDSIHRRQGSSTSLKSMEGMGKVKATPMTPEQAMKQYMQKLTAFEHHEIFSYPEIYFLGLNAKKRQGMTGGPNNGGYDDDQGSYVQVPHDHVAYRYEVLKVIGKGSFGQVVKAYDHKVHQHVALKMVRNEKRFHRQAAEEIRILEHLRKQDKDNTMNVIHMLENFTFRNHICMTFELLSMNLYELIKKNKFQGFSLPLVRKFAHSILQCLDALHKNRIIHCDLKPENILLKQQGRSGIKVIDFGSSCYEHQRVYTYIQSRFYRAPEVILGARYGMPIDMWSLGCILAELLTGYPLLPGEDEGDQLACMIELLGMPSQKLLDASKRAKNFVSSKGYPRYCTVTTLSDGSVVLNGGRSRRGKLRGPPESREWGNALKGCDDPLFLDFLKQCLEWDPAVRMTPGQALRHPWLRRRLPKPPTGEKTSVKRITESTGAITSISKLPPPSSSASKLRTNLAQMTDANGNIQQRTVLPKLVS
Put plainly: biochemical. The format is cell-based, Sf9.

Data set [3] addresses Dual specificity protein kinase CLK2 (Homo sapiens, UniProt P49760). Put plainly: biochemical.
The nature of another data set: in vitro. The note with it: mouse, ht-22.
Data set [4] concerns the target Cyclin-dependent kinase 5/CDK5 activator 1 (Homo sapiens, UniProt Q00535). Put plainly: biochemical. The data set is classed as cell-based, Sf9.
For data set [5], the target named is T3, Dual specificity tyrosine-phosphorylation-regulated kinase 4 (Homo sapiens, UniProt Q9NR20).
T3 sequence (Q9NR20 whole entry): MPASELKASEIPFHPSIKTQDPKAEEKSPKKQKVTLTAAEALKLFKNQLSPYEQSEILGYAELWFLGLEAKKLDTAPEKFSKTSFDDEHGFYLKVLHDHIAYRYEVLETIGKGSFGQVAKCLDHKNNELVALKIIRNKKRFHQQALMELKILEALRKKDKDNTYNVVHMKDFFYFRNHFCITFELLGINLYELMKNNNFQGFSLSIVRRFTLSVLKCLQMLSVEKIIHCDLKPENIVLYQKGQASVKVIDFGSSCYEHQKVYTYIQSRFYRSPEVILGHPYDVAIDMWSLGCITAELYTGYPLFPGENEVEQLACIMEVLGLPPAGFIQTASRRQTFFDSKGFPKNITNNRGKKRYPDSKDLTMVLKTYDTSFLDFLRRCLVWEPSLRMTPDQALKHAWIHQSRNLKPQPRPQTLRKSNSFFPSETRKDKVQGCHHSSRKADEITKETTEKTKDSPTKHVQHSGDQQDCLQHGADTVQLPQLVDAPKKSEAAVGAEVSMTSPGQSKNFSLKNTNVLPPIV
Put plainly: biochemical. The data set is classed as cell-based, Sf9.

Data set [6] addresses Dual specificity protein kinase CLK4 (Homo sapiens, UniProt Q9HAZ1). Put plainly: biochemical.
Data set [7] concerns the target T4, Dual specificity protein kinase CLK1 (Homo sapiens, UniProt P49759).
Data set [8] concerns the target T5, Dual specificity tyrosine-phosphorylation-regulated kinase 3 (Homo sapiens, UniProt O43781).
T5 sequence (O43781 whole entry): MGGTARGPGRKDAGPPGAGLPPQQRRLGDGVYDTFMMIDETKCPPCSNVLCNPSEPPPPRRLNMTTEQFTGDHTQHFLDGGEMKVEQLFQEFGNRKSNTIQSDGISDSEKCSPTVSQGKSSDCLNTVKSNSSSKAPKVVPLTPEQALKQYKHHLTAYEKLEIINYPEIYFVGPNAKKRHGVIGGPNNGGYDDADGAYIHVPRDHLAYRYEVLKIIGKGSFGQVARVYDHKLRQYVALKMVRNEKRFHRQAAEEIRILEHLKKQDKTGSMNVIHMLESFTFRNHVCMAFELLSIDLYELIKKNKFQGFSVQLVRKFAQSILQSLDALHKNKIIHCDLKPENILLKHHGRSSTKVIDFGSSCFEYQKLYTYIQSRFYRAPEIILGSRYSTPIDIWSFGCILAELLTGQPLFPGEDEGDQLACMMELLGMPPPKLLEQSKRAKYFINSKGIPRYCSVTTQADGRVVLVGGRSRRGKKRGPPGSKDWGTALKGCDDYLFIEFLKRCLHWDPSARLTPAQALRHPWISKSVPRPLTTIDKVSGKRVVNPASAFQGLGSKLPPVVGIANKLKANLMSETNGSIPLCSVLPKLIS
Put plainly: biochemical. The format is cell-based, Sf9.

Data set [9] deals with T4, Dual specificity protein kinase CLK1. Put plainly: biochemical. The data set is classed as cell-based, Sf9.
The target of data set [10] is Dual specificity protein kinase CLK3 (Homo sapiens, UniProt P49761). Put plainly: biochemical. The format is cell-based, Sf9.
Chain of Dual specificity protein kinase CLK3 (P49761 whole entry): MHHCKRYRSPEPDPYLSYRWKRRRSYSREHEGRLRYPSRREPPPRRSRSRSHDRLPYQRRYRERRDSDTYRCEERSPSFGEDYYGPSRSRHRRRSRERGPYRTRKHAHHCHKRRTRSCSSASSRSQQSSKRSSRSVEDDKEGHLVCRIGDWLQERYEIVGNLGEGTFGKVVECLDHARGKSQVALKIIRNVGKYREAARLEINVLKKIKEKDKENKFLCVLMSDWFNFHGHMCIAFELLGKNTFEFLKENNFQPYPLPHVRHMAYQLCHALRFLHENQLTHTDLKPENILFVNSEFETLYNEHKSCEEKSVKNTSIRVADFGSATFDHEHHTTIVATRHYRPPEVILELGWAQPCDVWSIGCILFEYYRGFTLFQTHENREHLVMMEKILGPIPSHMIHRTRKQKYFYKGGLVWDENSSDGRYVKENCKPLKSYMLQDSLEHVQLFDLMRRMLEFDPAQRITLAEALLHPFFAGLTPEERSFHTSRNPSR
Data set [11] deals with T1, Glycogen synthase kinase-3 beta. Put plainly: biochemical. The format is cell-based, Sf9.
Data set [12] deals with Casein kinase I isoform epsilon (Homo sapiens, UniProt P49674). Put plainly: biochemical. The format is cell-based, Sf9.
Chain of Casein kinase I isoform epsilon (P49674 whole entry, canonical isoform): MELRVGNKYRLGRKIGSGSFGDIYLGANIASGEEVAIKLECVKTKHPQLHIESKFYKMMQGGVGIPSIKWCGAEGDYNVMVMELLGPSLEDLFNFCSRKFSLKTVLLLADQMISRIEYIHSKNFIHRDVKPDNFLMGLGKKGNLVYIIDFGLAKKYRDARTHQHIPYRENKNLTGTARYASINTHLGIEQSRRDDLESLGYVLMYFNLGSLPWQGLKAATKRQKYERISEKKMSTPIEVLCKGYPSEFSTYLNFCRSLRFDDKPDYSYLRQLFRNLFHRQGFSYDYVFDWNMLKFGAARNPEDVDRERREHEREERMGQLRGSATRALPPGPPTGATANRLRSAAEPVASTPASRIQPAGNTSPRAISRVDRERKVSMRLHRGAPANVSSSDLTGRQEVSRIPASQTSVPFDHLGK
The target of data set [13] is T4, Dual specificity protein kinase CLK1. Put plainly: biochemical. The format is cell-based, Sf9. The source holds these as a separate data set.

T1 sequence (P49841 whole entry): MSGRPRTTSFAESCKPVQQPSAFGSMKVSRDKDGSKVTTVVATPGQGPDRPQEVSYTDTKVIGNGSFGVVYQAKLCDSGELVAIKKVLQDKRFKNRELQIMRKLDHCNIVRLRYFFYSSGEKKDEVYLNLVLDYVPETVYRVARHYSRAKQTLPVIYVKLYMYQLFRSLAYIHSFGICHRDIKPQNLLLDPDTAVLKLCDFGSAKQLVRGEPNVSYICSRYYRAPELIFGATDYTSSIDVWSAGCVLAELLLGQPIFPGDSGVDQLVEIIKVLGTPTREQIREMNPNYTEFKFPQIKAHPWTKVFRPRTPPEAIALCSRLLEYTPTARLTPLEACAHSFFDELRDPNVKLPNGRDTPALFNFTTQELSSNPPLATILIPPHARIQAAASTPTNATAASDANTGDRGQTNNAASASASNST
Chain of Cyclin-dependent kinase 5/CDK5 activator 1 (Q00535 whole entry): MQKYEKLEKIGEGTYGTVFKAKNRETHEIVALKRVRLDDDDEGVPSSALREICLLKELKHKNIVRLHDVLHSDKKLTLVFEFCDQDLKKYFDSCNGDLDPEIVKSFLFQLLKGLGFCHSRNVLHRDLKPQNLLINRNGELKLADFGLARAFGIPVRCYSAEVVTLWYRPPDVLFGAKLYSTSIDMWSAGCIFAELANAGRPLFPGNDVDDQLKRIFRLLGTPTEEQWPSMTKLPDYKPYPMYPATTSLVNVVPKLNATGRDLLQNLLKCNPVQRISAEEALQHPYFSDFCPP
Chain of Cyclin-dependent kinase 5/CDK5 activator 1 (Q15078 whole entry, further chain): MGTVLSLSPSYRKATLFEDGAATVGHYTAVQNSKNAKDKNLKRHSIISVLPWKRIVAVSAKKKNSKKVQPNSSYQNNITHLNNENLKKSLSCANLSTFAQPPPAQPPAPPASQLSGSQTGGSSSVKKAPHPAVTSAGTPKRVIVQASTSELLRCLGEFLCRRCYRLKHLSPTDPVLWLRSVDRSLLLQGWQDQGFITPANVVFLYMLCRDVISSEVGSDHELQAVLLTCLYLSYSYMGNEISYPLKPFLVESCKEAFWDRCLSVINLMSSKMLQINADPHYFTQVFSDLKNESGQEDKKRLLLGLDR
T4 sequence (P49759 whole entry): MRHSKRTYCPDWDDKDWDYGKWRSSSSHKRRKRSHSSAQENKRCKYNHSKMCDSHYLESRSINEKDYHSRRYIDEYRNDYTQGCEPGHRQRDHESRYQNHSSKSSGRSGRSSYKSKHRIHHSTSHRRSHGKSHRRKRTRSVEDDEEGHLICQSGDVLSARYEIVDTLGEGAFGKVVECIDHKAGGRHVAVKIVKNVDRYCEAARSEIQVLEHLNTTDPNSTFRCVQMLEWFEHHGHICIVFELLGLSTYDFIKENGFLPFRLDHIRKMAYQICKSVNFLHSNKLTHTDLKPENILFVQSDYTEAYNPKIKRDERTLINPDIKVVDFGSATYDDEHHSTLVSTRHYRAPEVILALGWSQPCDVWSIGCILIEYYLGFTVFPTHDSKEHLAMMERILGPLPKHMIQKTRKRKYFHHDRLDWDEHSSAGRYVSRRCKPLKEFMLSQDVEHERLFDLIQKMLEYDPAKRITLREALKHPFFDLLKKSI
Chain of Dual specificity protein kinase CLK4 (Q9HAZ1 whole entry): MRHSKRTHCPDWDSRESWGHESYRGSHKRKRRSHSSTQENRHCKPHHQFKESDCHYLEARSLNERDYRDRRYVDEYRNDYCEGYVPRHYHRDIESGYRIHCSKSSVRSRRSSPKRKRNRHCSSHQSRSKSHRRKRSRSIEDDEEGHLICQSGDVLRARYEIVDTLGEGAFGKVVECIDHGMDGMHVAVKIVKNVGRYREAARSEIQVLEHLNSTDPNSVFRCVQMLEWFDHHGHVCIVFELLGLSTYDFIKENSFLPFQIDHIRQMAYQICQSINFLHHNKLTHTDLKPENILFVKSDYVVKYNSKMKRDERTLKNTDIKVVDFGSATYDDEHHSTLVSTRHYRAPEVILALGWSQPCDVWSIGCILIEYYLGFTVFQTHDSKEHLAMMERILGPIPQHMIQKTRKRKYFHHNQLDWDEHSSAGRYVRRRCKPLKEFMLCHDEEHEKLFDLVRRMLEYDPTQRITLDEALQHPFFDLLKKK
Chain of Dual specificity protein kinase CLK2 (P49760 whole entry): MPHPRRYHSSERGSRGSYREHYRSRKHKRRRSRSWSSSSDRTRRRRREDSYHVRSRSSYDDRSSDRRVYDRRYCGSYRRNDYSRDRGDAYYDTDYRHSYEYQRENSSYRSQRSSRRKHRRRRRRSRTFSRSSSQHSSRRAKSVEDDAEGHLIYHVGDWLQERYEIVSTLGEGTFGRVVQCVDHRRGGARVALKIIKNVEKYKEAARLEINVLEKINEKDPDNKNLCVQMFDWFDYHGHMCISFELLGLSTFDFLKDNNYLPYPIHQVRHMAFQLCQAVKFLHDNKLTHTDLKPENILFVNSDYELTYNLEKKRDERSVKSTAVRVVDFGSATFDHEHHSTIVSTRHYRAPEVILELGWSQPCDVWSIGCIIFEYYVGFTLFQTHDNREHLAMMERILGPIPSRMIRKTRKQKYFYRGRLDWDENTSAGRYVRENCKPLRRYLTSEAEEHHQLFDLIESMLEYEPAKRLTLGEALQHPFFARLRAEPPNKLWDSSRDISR

A word on the Kd: it is the free concentration of one partner at which half of the binding sites on the other are occupied at equilibrium, for simple one-to-one binding. The low end stands for higher affinity, the high end for lower affinity. By IC50 is commonly meant the concentration at which inhibition is half-maximal. As for `CCN1/C(=C/C(C)=O)Sc2ccc(O)cc21`, the dissociation constant (Kd) in data set [1] is 1640 nM; in [7], 1.27 nM. For the same molecule, the IC50 is 226 nM in data set [2]; 315 nM in [3]; above 10000 nM in data set [4]; 894 nM in data set [5]; 10.9 nM in data set [6]; 82.6 nM in data set [8]. The IC50 in data set [9] was found to be 44.2 nM; in [10], 4790 nM; in [11], 4400 nM; in data set [12], 2980 nM. The IC50 at 48 h in “in vitro” is above 100000 nM.
For `c1ccc(-c2ccc3[nH]ncc3c2)cc1`, the Kd in data set [1] was found to be 1980 nM; in [7], 1.63 nM. The IC50 was 1250 nM in [2]; 211 nM in [3]; 1800 nM in [4]; above 10000 nM in [5]; 15 nM in data set [6]; 5850 nM in [8]. For the same molecule, the half-inhibitory concentration (IC50) in data set [9] is 39.6 nM; in data set [13] (read-out: IC50), 24.2 nM; in data set [10] it was 1690 nM; in data set [11] it was 7510 nM; in [12] it was above 10000 nM. The same molecule displayed a half-maximal inhibitory concentration (IC50) at 48 h in “in vitro” of 42500 nM.
Consider `COc1cc(N2CCN(C)CC2)ccc1Nc1nccc(-c2cn(C)c3cnccc23)n1`, for which the Kd in [1] is above 10000 nM; in data set [7], 7.35 nM. Moreover, the IC50 in data set [2] was found to be 764 nM; in data set [3] it was 3500 nM; in data set [4], 1060 nM; in data set [5] it was 6250 nM; in [6], 403 nM; in [8] it was 1220 nM. Moreover, the IC50 in [9] was 568 nM; in data set [13] (read-out: IC50), 175 nM; in data set [10], above 10000 nM; in data set [11], above 10000 nM; in [12], above 10000 nM. This molecule also displayed an IC50 at 48 h in “in vitro” of 27800 nM.
On to `O=C(O)c1nc2ccccc2c2[nH]c3c(I)cccc3c12`, for which the figures for the dissociation constant Kd in [1] and in [7] were 475 nM and 6.22 nM, respectively. In addition, the IC50 in data set [3] is 5140 nM; in [5], above 10000 nM; in data set [6], 316 nM; in data set [9], 3610 nM; in data set [13] (read-out: IC50), 14.6 nM; in data set [10], above 10000 nM. Further, the half-inhibitory concentration (IC50) in data set [11] and in data set [12] was above 10000 nM each time. The molecule further yielded an IC50 at 48 h in the data set “in vitro” above 100000 nM.
As for `COC(=N)c1nc2ccc3ncnc(Nc4ccc(OC)cc4F)c3c2s1`, the Kd was 160 nM in data set [1] and 7.63 nM in [7]. For the same molecule, the IC50 in data set [2] was 323 nM; in data set [3], above 10000 nM; in [4], above 10000 nM; in data set [5], above 10000 nM; in data set [6], 79.6 nM; in data set [8] it was above 10000 nM. Besides, the IC50 was 1210 nM in data set [9]; 111 nM in data set [13] (read-out: IC50); above 10000 nM in data set [10]; 5330 nM in data set [11]; above 10000 nM in data set [12]. Besides, the IC50 at 48 h in the data set “in vitro” worked out at 21600 nM.
On to `COc1ccc2c3ccnc(Cl)c3n(CC#N)c2c1`, for which the values for the Kd in [1] and in data set [7] were 2580 nM and 8.7 nM, respectively. Moreover, the half-inhibitory concentration (IC50) in [2] was 813 nM; in data set [3], 630 nM; in data set [4], above 10000 nM; in data set [5] it was 8370 nM; in [6] it was 23.8 nM; in data set [8] it was 1220 nM. Besides, the IC50 in data set [9] is 157 nM; in data set [13] (read-out: IC50), 88.3 nM; in data set [10], 4920 nM; in data set [11], above 10000 nM; in data set [12], above 10000 nM. In addition, the IC50 at 48 h in the data set “in vitro” is 97000 nM.
With `CN(C)c1nccc(-c2cnn3ncccc23)n1`, the dissociation constant Kd in [1] was above 10000 nM; in [7], 5.38 nM. Further, the half-inhibitory concentration (IC50) came out at 3270 nM in data set [2]; 9670 nM in data set [4]; 9590 nM in data set [5]; 219 nM in data set [6]; 4450 nM in data set [8]; 319 nM in [9]. The values for the IC50 in [10], in data set [11] and in [12] were 2970 nM, above 10000 nM and above 10000 nM, respectively. In “in vitro”, this molecule came in with an IC50 at 48 h of 58600 nM.
Consider `CN1Cc2nn(C)c(C#N)c2-c2cnc3[nH]c(F)c(c3c2)-c2cn(nc2C(F)(F)F)CCCC1=O`, for which, in data set [1], binding was put at a Kd of 936 nM. For the same molecule, the IC50 in [2] was 1100 nM; in [3] it was 2500 nM; in data set [4] it was above 10000 nM; in data set [5] it was above 10000 nM; in [6], above 10000 nM; in [8], above 10000 nM. Moreover, the concentration for half-maximal inhibition (IC50) entry in data set [13] (sf9) was “Not Active”; in data set [10], above 10000 nM; in data set [11] it was 3390 nM; in data set [12], above 10000 nM. In “in vitro”, this molecule yielded an IC50 at 48 h above 100000 nM.
Take `COC1=CC2C(=O)NC3=Cc4ccc(OC)cc4C(=C1OC)C32` (stereo not drawn): the figures for the dissociation constant Kd in data set [1] and in data set [7] were 396 nM and 0.58 nM, respectively. The IC50 was 26.8 nM in data set [2]; 33.3 nM in data set [3]; above 10000 nM in [4]; 3690 nM in data set [5]; 6.7 nM in data set [6]; 23.5 nM in data set [8]. The IC50 in [9] is 11.4 nM; in data set [13] (read-out: IC50) it was 31.8 nM; in [10], 640 nM; in [11] it was 2200 nM; in data set [12] it was above 10000 nM. This molecule displayed an IC50 at 48 h in the data set “in vitro” of 20900 nM.
For `O=c1c2c(O)cc(O)cc2oc2c(O)ccc(O)c12` [DEMETHYLBELLIDIFOLIN], the Kd in data set [1] is above 10000 nM; in data set [7] it was 29.7 nM. Besides, the IC50 is 2710 nM in [2]; 1700 nM in data set [3]; above 10000 nM in data set [4]; above 10000 nM in data set [5]; 146 nM in data set [6]; above 10000 nM in data set [8]. The IC50 was 239 nM in data set [9], 7530 nM in [10], above 10000 nM in data set [11] and above 10000 nM in [12]. In addition, in “in vitro”, the IC50 at 48 h is 2500 nM.
On to `CN1C(=O)/C(=C/c2ccc3c(c2)OCO3)N=C1N` [LEUCETTAMINE B], for which the dissociation constant Kd in data set [1] is above 10000 nM; in data set [7] it was 36.9 nM. The IC50 in data set [2] came out at 2730 nM; in [3], 3090 nM; in data set [5], 6370 nM; in data set [6], 396 nM; in [8] it was 4890 nM; in data set [9], 646 nM. Also, the IC50 in data set [10], in data set [11] and in data set [12] was above 10000 nM in each case. The same molecule registered an IC50 at 48 h in the data set “in vitro” above 100000 nM.
